The values below come from patent US20100113276A1, “USE OF N2-PHENYLAMIDINES AS HERBICIDES” (BAYER CROPSCIENCE AG, priority 2007, published 2010).

The structures appear in SMILES notation.

This data set is described as follows: log P by HPLC on reversed-phase column (C18), EEC Directive 79/831 Annex V.A8. The data set is classed as physicochemical. The conditions noted are these: C18, 40° C.; for log p H3PO4: 0.1% aqueous phosphoric acid / acetonitrile; for log p HCO2H: aqueous formic acid / acetonitrile. The method, then: The log P data were determined in accordance with the EEC Directive 79/831 Annex V.A8 by HPLC (High Performance Liquid Chromatography) on a reversed-phase column (C18) using the following methods: […]
Calibration was carried out with the help of unbranched alkan-2-ones (consisting of 3 to 13 or 16 carbon atoms) with known logP values (determination of the logP values via the retention times by means of linear interpolation between two subsequent alkanones).

Take `Cc1cc(N=CN(C)C(C)C)c(Cl)cc1Oc1ccc(Cl)c(C(C)C)c1` [compound 899]: the “log p H3PO4” value is listed as 3.07, the “log p HCO2H” value came out at 2.92 and the log p neutral is 6.45.
In the case of `Cc1cc(N=CN2CCCCC2)c(Cl)cc1Oc1ccc(Cl)c(C(C)C)c1` [compound 901], the “log p H3PO4” value turned out to be 3.12, the “log p HCO2H” value amounted to 3 and the log p neutral is on record as 6.72.
As for `Cc1cc(N=CN(C)C)c(Cl)cc1Oc1ccc(Cl)c(C(C)(C)C)c1` [compound 902], the “log p H3PO4” value was determined as 1.57, the “log p HCO2H” value is reported as 2.65 and the log p neutral amounted to 6.11.
Take `CCN(C)C=Nc1cc(C)c(Oc2ccc(Cl)c(C(C)(C)C)c2)cc1Cl` [compound 903]: the “log p H3PO4” value worked out at 2.98, the “log p HCO2H” value came out at 2.8 and the log p neutral came to 6.54.
With `Cc1cc(N=CN(C)C(C)C)c(Cl)cc1Oc1ccc(Cl)c(C(C)(C)C)c1` [compound 904], the “log p H3PO4” value came to 1.35, the “log p HCO2H” value came to 3.01 and the log p neutral amounted to 6.87.
For the compound `Cc1cc(N=CN2CCCCC2)c(Cl)cc1Oc1ccc(Cl)c(C(C)(C)C)c1` [compound 906], the “log p H3PO4” value is reported as 3.36, the “log p HCO2H” value came out at 3.25 and the log p neutral was 7.04.
Compound `CCN(C)C=Nc1cc(C)c(Oc2nc(C(C)(C)C)ns2)cc1Cl` [compound 916] came in with a log p acidic of 2.1 and a log p neutral of 4.92.
The compound `CCN(C)C=Nc1cc(C)c(-c2ccc(Cl)c(C(F)(F)F)c2)cc1Cl` [compound 928] returned a log p acidic of 2.3 and a log p neutral of 5.31.
For the compound `CCN(C)C=Nc1cc(C(F)(F)F)c(Oc2ccc(Cl)c(C(C)(C)C)c2)cc1Cl` [compound 944], the “log p H3PO4” value is listed as 3.35, the “log p HCO2H” value was 3.39 and the log p neutral came out at 6.63.
As to `CC(C)(C)c1cc(Oc2cc(Cl)c(N=CN3CCCCC3)cc2C(F)(F)F)ccc1Cl` [compound 946], the “log p H3PO4” value is 3.61, the “log p HCO2H” value amounted to 3.68 and the log p neutral stood at 7.1.
On the same counts, the results for `CN(C)C=Nc1cc(C(F)(F)F)c(Oc2ccc(Cl)c(C(F)(F)F)c2)cc1Cl` [compound 947] are 2.61, 2.78 and 5.39.
With `CCN(C)C=Nc1cc(C(F)(F)F)c(Oc2ccc(Cl)c(C(F)(F)F)c2)cc1Cl` [compound 948], the “log p H3PO4” value stood at 2.87, the “log p HCO2H” value is reported as 2.98 and the log p neutral is 5.74.
Regarding `CC(C)N(C)C=Nc1cc(C(F)(F)F)c(Oc2ccc(Cl)c(C(F)(F)F)c2)cc1Cl` [compound 949], the “log p H3PO4” value was 2.82, the “log p HCO2H” value is reported as 3.08 and the log p neutral was found to be 6.
Turning to `FC(F)(F)c1cc(Oc2cc(Cl)c(N=CN3CCCCC3)cc2C(F)(F)F)ccc1Cl` [compound 951], the “log p H3PO4” value turned out to be 3.03, the “log p HCO2H” value was 3.42 and the log p neutral is on record as 6.2.
`CCN(C)C=Nc1cc(C(F)(F)F)c(-c2ccc(C(C)(C)C)cc2)cc1Cl` [compound 962]: the log p acidic is 2.74 and the log p neutral is recorded as 6.15.
As for `COc1cc(Oc2ccc(Cl)c(C(C)(C)C)c2)c(OC)cc1N=CN(C)C` [compound 981], the “log p HCO2H” value was 3.11 and the log p neutral came out at 7.36.
In turn, `CCN(C)C=Nc1cc(OC)c(Oc2ccc(Cl)c(C(F)(F)F)c2)cc1OC` [compound 986] gave a log p acidic of 2.23 and a log p neutral of 4.14.
Taken in the same sequence, the figures for `COc1cc(Oc2ccc(Cl)c(C(F)(F)F)c2)c(OC)cc1N=CN(C)C(C)C` [compound 987] were 2.35 and 4.5.
`COc1cc(-c2ccc(C)cc2)c(OC)cc1N=CN(C)C` [compound 998]: the log p acidic was found to be 1.76.
`CCN(C)C=Nc1cc(OC)c(-c2ccc(C)cc2)cc1OC` [compound 999] came in with a log p acidic of 1.89.
